Measured values reported in US12077503B2, “Substituted cyclic amides and their use as herbicides” (FMC CORPORATION, priority 2015, dated 2024).
Like-named read-outs stand apart in the source and are kept apart here.

How the values were obtained:
Experiment in all cases: Test A postemergence
Format in all cases: in vivo
[1] = test system: wheat (Triticum aestivum); conditions: Triticum aestivum, post-emergence, 240 h, postemergence; for plant injury at 125 g/ha: 125 g ai/ha; for plant injury at 500 g/ha: 500 g ai/ha, 0 to 100 scale, 0 is no effect, 100 is complete control
In short: (§1)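 Seeded soil received test chemicals as a preemergence directed spray, and seedlings at one to two leaves, 2–10 cm tall, received them postemergence, in a non-phytotoxic, surfactant-containing solvent mixture. Pots were held in a greenhouse for approximately 10 d, then rated for injury from 0, no effect, to 100, complete control.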

[2] = test system: blackgrass (Alopecurus myosuroides); conditions: Alopecurus myosuroides, post-emergence, 240 h, postemergence; for pest or weed control at 125 g/ha: 125 g ai/ha; for pest or weed control at 500 g/ha: 500 g ai/ha, 0 to 100 scale, 0 is no effect, 100 is complete control
In short: as §1

[3] = test system: Galium (catchweed bedstraw, Galium aparine); conditions: Galium, post-emergence, 240 h, postemergence; for pest or weed control at 125 g/ha: 125 g ai/ha; for pest or weed control at 500 g/ha: 500 g ai/ha, 0 to 100 scale, 0 is no effect, 100 is complete control
In short: as §1

[4] = test system: ragweed (common ragweed, Ambrosia elatior); conditions: Ambrosia artemisiifolia, post-emergence, 240 h, postemergence; for pest or weed control at 125 g/ha: 125 g ai/ha; for pest or weed control at 500 g/ha: 500 g ai/ha, 0 to 100 scale, 0 is no effect, 100 is complete control
In short: as §1

[5] = test system: barnyardgrass (Echinochloa crus-galli); conditions: Echinochloa crus-galli, post-emergence, 240 h, postemergence; for pest or weed control at 125 g/ha: 125 g ai/ha; for pest or weed control at 500 g/ha: 500 g ai/ha, 0 to 100 scale, 0 is no effect, 100 is complete control
In short: as §1

corn (Zea mays) = conditions: Zea mays, post-emergence, 240 h, postemergence; for plant injury at 125 g/ha: 125 g ai/ha; for plant injury at 500 g/ha: 500 g ai/ha, 0 to 100 scale, 0 is no effect, 100 is complete control
In short: as §1

[6] = read-out: Wheat plant response rating
[7] = read-out: Blackgrass plant response rating
[8] = read-out: Galium plant response rating
[9] = read-out: Ragweed plant response rating
[10] = read-out: Barnyardgrass plant response rating
[11] = read-out: Corn plant response rating
[12] = visual injury vs untreated controls after approx. 10 d, 0 = no effect, 100 = complete control, read-out: Wheat plant response rating (0 to 100 scale)
[13] = visual injury vs untreated controls after approx. 10 d, 0 = no effect, 100 = complete control, read-out: Blackgrass plant response rating (0 to 100 scale)
[14] = visual injury vs untreated controls after approx. 10 d, 0 = no effect, 100 = complete control, read-out: Galium plant response rating (0 to 100 scale)
[15] = visual injury vs untreated controls after approx. 10 d, 0 = no effect, 100 = complete control, read-out: Ragweed plant response rating (0 to 100 scale)
[16] = visual injury vs untreated controls after approx. 10 d, 0 = no effect, 100 = complete control, read-out: Barnyardgrass plant response rating (0 to 100 scale)
[17] = visual injury vs untreated controls after approx. 10 d, 0 = no effect, 100 = complete control, read-out: Corn plant response rating (0 to 100 scale)

Row | SMILES | plant injury at 125 g/ha ([1]; visual injury on 0 to 100 scale (0 no effect, 100 complete control), approx. 10 d, read-out: Wheat plant response rating) [%] | plant injury at 500 g/ha [1, 6] [%] | pest or weed control at 125 g/ha ([2]; visual injury on 0 to 100 scale (0 no effect, 100 complete control), approx. 10 d, read-out: Blackgrass plant response rating) [%] | pest or weed control at 500 g/ha [2, 7] [%] | pest or weed control at 125 g/ha ([3]; visual injury on 0 to 100 scale (0 no effect, 100 complete control), approx. 10 d, read-out: Galium plant response rating) [%] | pest or weed control at 500 g/ha [3, 8] [%] | pest or weed control at 125 g/ha ([4]; visual injury on 0 to 100 scale (0 no effect, 100 complete control), approx. 10 d, read-out: Ragweed plant response rating) [%] | pest or weed control at 500 g/ha [4, 9] [%] | pest or weed control at 125 g/ha ([5]; visual injury on 0 to 100 scale (0 no effect, 100 complete control), approx. 10 d, read-out: Barnyardgrass plant response rating) [%] | pest or weed control at 500 g/ha [5, 10] [%] | plant injury at 125 g/ha (corn (Zea mays); visual injury on 0 to 100 scale (0 no effect, 100 complete control), approx. 10 d, read-out: Corn plant response rating) [%] | plant injury at 500 g/ha (corn (Zea mays); [11]) [%] | plant injury at 125 g/ha [1, 12] [%] | pest or weed control at 125 g/ha [2, 13] [%] | pest or weed control at 125 g/ha [3, 14] [%] | pest or weed control at 125 g/ha [4, 15] [%] | pest or weed control at 125 g/ha [5, 16] [%] | plant injury at 125 g/ha (corn (Zea mays); [17]) [%]
1 | CN1C[C@H](c2csc3ccccc23)[C@@H](C(=O)Nc2ccccc2F)C1=O [Compound 1114] | 0 | 30 | 20 | 60 | 0 | 20 | 0 | 0 | 80 | 90 | 0 | 70 |  |  |  |  |  | 
2 | CSc1ccccc1NC(=O)[C@H]1C(=O)N(C)CC[C@@H]1c1ccc(C(F)(F)F)cc1 [Compound 1227] |  | 0 |  | 0 |  | 0 |  | 0 |  | 70 |  | 0 | 0 | 0 | 0 | 0 | 0 | 0
3 | CSc1ccccc1NC(=O)[C@H]1C(=O)N(C)C[C@@H]1c1ccc(F)cc1 [Compound 1236] |  |  |  | 30 |  | 60 |  | 40 |  | 100 |  | 90 | 0 | 30 | 50 | 0 | 100 | 60
4 | O=C1NC[C@H](c2cccc(C(F)(F)F)c2)C1C(=O)Nc1c(F)cccc1CO (stereo partly drawn) [Compound 1240] |  |  |  | 0 |  | 0 |  | 0 |  | 0 |  | 0 | 0 | 0 | 0 | 0 | 0 | 0
5 | O=C1NC[C@H](c2cccc(C(F)(F)F)c2)C1C(=O)Nc1ccccc1CO (stereo partly drawn) [Compound 1244] |  |  |  | 50 |  | 20 |  | 0 |  | 80 |  | 40 | 0 | 0 | 0 | 0 | 50 | 0
